Laboratory results published in publication PMC7714071, “Interaction of amyloid beta with humanin and acetylcholinesterase is modulated by ATP” (FEBS Open Bio, 2020).

Tested on: AChE
Experiment: ELISA, binding of biotinylated-Aβ40 to immobilised AChE
Parameters: species or system human
Source text: Most of the material used was purchased as we previously reported. Nitrocellulose membranes, PBS, ATP, recombinant human AChE (C1682, UniProt accession ID: C9JD78), streptavidin‐conjugated horseradish peroxidase (HRP) conjugate, Ponceau S solution, PMSF, and HS sodium salt from bovine kidney were purchased from Sigma‐Aldrich (St. Louis, MO, USA). Mouse IgG isotype control (mIgG), ultra 3,3′,5,5′‐tetramethylbenzidine (TMB)‐ELISA substrate solution, Halt Protease and Phosphatase Inhibitor Cocktail, HN polyclonal antibody (rabbit, PA1‐41610), and Nunc MaxiSorpTM 96‐well flat bottom plates were from Thermo Fisher (Waltham, MA, USA). […]
ELISAs were carried out as we previously reported. […] TBST was then used to wash the wells 4× before proceeding in one of two ways: (a) biotinylated samples were analyzed by adding 100 µL streptavidin–HRP conjugate in TBST (1 : 2500 dilution) to the samples followed by incubation for 3 h at RT on a shaker, or (b) samples without biotin were analyzed by adding 100 µL TBST containing the primary antibody as per the manufacturer's recommendation, incubating for 3 h at RT on a shaker, followed by washing the wells 4× with TBST. […] The reaction was stopped with 100 µL 2 M H2SO4 after incubating at RT for 0.5–15 min, resulting in a yellow color change, measured by absorbance at 450 nm. […] Statistical analysis was determined by the […]

Row | Compound | effect of ATP on affinity of AChE to Aβ40 (200 μM ATP, 30 min preincubation RT, pH 7.5, 10 mM MgCl2, three experiments in triplicate, Fig. 3A) | effect of HS on binding of Aβ40 to AChE (AChE 10 nM on wells, biotinylated-Aβ 1 μM, increasing HS, three independent assays, Fig. 2C)
1 | Nc1ncnc2c1ncn2[C@@H]1O[C@H](COP(=O)(O)OP(=O)(O)OP(=O)(O)O)[C@@H](O)[C@H]1O [ATP, Adenosine triphosphate] | reduced the affinity | 
2 | heparan sulfate [HS] |  | No effects
